Experimental findings from US20230310376A1, “PROPHYLACTIC AND/OR THERAPEUTIC AGENT FOR IDIOPATHIC PULMONARY FIBROSIS” (ONO PHARMACEUTICAL CO., LTD., priority 2020, published 2023) are described below.

Test [1] relates to bleomycin-induced pulmonary fibrosis models produced using LPA3 receptor-deficient C57BL/6N mice. Description: Bleomycin-induced pulmonary fibrosis model, LPA3 receptor-deficient C57BL/6N mice. Particulars: transpulmonary bleomycin, 3 mg/kg oral two times/day to day 21, vs medium-administered group. In kind it is in vivo, mouse. On the procedure: (§1) Wild-type and LPA3 receptor-deficient male C57BL/6N mice (Oriental BioService, Inc., the week age at the start of the experiment: 13-week old) were used. Bleomycin hydrochloride (Nippon Kayaku Co., Ltd.) was dissolved in physiological saline (Otsuka Pharmaceutical Factory, Inc.) to prepare a 0.41-mg/mL solution. The bleomycin solution thus prepared was administered to each of the mice at a dosage volume of 75 μL through a transpulmonary route. For a normal group, physiological saline was administered at a dosage volume of 75 μL through a transpulmonary route.
(§2) On the day of first administration of bleomycin, the body weights were measured, and the mice were divided into groups equally in such a manner that a significant difference was not observed in the average values of the body weights among the groups. After the grouping, the administration of a test substance or the medium started, and the administration was performed repeatedly through an oral route at a frequency of two times/day from the day of the first administration of bleomycin to day 21. The volume of a solution to be administered was calculated on the basis of the body weight of each of the mice.
On the next day of the day of the final administration, each of the animals was subjected to the opening of the abdominal cavity under the anesthesia with a three types of mixed anesthetic agent (the intraperitoneal administration of 0.3 mg/10 mL/kg of medetomidine, 4 mg/10 mL/kg of midazolam, and 5 mg/10 mL/kg of butorphanol), and then the abdomen aorta in each of the animals was dissected to bleed to death. After the bleeding to death, the lung was excised, and the lung wet weight was measured. Subsequently, the lung was frozen. The frozen lung was homogenized, and then 11.2-N hydrochloric acid (200 μL) was added to a homogenate solution to hydrolyze the homogenate solution at about 120° C. for 34 hours. The content of hydroxyproline in the solution after the hydrolysis was measured using a hydroxyproline quantification kit (BioVision, Inc.).

The target in another test is LPA2 receptor (Homo sapiens, UniProt Q9HBW0). Description: LPA2 agonistic activity measurement in receptor-expressing cell strain. It is filed as cell-based. Particulars: cell strain stably expressing LPA2 receptor.
The test system of test [2] is bleomycin-induced pulmonary fibrosis model, wild-type male C57BL/6N mice. As to the kind of experiment: Bleomycin-induced pulmonary fibrosis model, wild-type C57BL/6N mice. It is filed as in vivo, mouse. The conditions noted are these: transpulmonary bleomycin, 3 mg/kg oral two times/day to day 21, vs medium-administered group. On the procedure: as §1
as §2, with “mice. […]” for “mice.”

A further test concerns the target human LPA1 receptor (Homo sapiens, UniProt Q92633). Description: LPA1 agonistic activity measurement in receptor-expressing cell strain. The conditions noted are these: cell strain stably expressing human LPA1 receptor. It is filed as cell-based.
Test [3] deals with bleomycin-induced pulmonary fibrosis models produced using male ICR mice. Description: Bleomycin-induced pulmonary fibrosis model, male ICR mice. It is filed as in vivo, mouse. The conditions noted are these: bleomycin i.v. 5 days, 0.3, 1, 3 mg/kg oral two times/day to day 28, vs medium-administered group. As for the experimental part:
Male ICR mice (Charles River Laboratories Japan, Inc., the week age at the start of experiment: 12-week old) were used. Bleomycin hydrochloride (Nippon Kayaku Co., Ltd.) was dissolved in physiological saline (Otsuka Pharmaceutical Factory, Inc.) to prepare a 3-mg/mL solution. The bleomycin solution thus prepared was administered into a tail vein of each of the mice at a dosage volume of 5 mL/kg at a frequency of 1 time/day for 5 days. For a normal group, physiological saline was administered into a tail vein at a dosage volume of 5 mL/kg at a frequency of 1 time/day for 5 days.
as §2, with “through” for “through an”, “28.” for “21.”
On the next day of the day of the final administration, each of the animals was subjected to the opening of the abdominal cavity under the anesthesia with 2% isoflurane, and then the abdomen aorta in each of the mice was dissected to bleed to death. After the bleeding to death, the right lung was excised, and the lung wet weight was measured. Subsequently, the tissues of the right lung were dried with a dry-heat sterilizer, and the dry weight of the right lung was measured. […] The weight of the product after the neutralization was measured to calculate the amount (g) of the sample after the neutralization. […]
A chloramine T reagent (1 mL) was added to an HYP standard solution (2 mL), the resultant mixture was left to stand for 20 minutes at room temperature, then a perchloric acid reagent (1 mL) was added to the solution, and then the resultant mixture was left to stand for 5 minutes at room temperature. A p-dimethylaminobenzaldehyde reagent (1 mL) was added to the solution, then the resultant mixture was warmed to 60° C. for 20 minutes, and then the absorbance of a supernatant produced by the filtration of the mixture through a filter was measured at 557 nm with a spectrophotometer to produce a standard curve.
With respect to each of the HYP content measurement samples (2 mL), the measurement of the absorbance was performed in the same manner as mentioned above, and then the HYP content (μg/mL) was calculated on the basis of the standard curve. […] The HYP amount in the right lung (μg/Lung) was calculated in accordance with the following equation. […]

Entries after “also recorded” stand apart in the source; their conditions may differ. Where only a bound is given, the exact number is not on record here.

LPA2 receptor, sequence (Q9HBW0 whole entry): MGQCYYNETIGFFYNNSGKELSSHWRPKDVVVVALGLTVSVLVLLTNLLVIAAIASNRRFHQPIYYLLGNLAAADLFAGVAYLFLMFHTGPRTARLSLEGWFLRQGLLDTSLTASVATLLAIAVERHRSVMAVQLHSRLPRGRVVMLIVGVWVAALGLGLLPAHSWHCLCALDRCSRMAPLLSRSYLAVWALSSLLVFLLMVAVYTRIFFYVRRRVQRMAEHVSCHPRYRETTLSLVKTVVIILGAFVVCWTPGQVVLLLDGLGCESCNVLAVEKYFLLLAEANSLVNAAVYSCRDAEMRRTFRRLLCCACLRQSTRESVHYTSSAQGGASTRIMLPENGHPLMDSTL
human LPA1 receptor, sequence (Q92633 whole entry): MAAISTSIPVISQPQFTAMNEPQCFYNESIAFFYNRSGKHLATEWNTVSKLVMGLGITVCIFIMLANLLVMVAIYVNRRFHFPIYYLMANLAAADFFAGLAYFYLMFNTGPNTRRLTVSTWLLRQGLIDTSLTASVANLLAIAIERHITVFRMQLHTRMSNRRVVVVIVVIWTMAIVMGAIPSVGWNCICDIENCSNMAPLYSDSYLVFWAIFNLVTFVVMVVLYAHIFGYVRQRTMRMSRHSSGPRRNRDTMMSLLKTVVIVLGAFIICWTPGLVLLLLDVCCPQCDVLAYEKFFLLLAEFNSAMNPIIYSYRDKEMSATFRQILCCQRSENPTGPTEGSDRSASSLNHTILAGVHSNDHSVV

Regarding `Cc1ccc(Cn2c(C(=O)O)c(CNC3CCC3)c3ccccc32)cc1` [Compound I, 3-[(Cyclobutylamino)methyl]-1-(4-methylbenzyl)-1H-indol-2-carboxylic acid], the lung weight result in test [1] (FIG. 3, 3 mg/kg) was “does not prevent the increase in the weight of the lung”; in test [1] (FIG. 3, listed as Example 1, 3 mg/kg), “did not show significant difference compared with those in the medium-administered group”; in test [2] (FIG. 3) it was “smaller compared with those in the medium-administered group”. In addition, the “HYP amount in the lung” value in test [1] (FIG. 4, 3 mg/kg) is “does not prevent the increase in the amount of hydroxyproline”; in test [1] (FIG. 4, listed as Example 1, 3 mg/kg) it was “did not show significant difference compared with those in the medium-administered group”; in test [2] (FIG. 4), “smaller compared with those in the medium-administered group”. For the same compound, the EC50 at LPA2 receptor and on human LPA1 receptor was greater than 10 µM each time. In addition, the “weight of the right lung” value is “significantly prevented the increase; also recorded: prevents the increase in the weight of the lung” in test [3] (FIG. 1) and “lower compared with those in the medium-administered group” in test [3] (FIG. 1, listed as Example 1). Further, the “HYP (hydroxyproline) amount in the right lung” value is “significantly prevented the increase; also recorded: prevents the increase in the amount of hydroxyproline” in test [3] (FIG. 2) and “lower compared with those in the medium-administered group” in test [3] (FIG. 2, listed as Example 1).
